In ChEMBL document CHEMBL1909046, “DrugMatrix in vitro pharmacology data” one finds IC50 and Ki data, which are given here for 24 compounds.

Test [1] can be described thus: DRUGMATRIX: Calcium Channel Type L, Phenylalkylamine radioligand binding (ligand: [3H] (-)-Desmethoxyverapamil (D-888)). It is filed as cell membranes, Rattus norvegicus, Wistar, Brain, Membrane. The conditions noted are these: Not Active = under 50% inhibition at 10 µM.
Test [2] in a line: DRUGMATRIX: Leukotriene, BLT (LTB4) radioligand binding (ligand: [3H]LTB4). It is filed as cell membranes, Membrane. The conditions noted are these: u-937; Not Active = under 50% inhibition at 10 µM.
The target in test [3] is T1, 5-hydroxytryptamine receptor 2C (Homo sapiens, UniProt P28335).
T1 sequence (P28335 whole entry): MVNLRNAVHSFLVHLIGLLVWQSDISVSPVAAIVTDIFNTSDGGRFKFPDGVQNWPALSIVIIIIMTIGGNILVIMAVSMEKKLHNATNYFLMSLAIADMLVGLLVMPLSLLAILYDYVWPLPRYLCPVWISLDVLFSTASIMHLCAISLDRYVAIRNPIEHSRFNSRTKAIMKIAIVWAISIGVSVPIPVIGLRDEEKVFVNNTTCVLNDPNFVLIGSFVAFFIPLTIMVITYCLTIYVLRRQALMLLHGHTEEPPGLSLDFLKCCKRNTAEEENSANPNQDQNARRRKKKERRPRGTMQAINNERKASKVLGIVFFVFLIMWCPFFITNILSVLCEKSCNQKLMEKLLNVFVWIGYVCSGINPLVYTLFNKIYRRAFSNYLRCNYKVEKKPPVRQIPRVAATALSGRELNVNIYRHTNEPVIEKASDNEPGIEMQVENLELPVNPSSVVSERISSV
Kind of test: DRUGMATRIX: Serotonin (5-Hydroxytryptamine) 5-HT2C radioligand binding (ligand: [3H] Mesulergine). It is filed as cell membranes, CHO-K1, Membrane. Conditions: Not Active = under 50% inhibition at 10 µM.

The target in the next test is Substance-P receptor (Homo sapiens, UniProt P25103). It is filed as cell membranes, Membrane. Conditions: cho. Also: in other assays of this panel Not Active means under 50% inhibition at 10 µM.
In test [4] the target is Aldo-keto reductase family 1 member B1 (Rattus norvegicus, UniProt P07943). Kind of test: biochemical. Format: tissue-based, Lens of camera-type eye.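 Also: inhibition of aldose reductase enzyme activity, measured with DL-glyceraldehyde as the substrate; in other assays of this panel Not Active means under 50% inhibition at 10 µM.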

Sequence of Substance-P receptor (P25103 whole entry): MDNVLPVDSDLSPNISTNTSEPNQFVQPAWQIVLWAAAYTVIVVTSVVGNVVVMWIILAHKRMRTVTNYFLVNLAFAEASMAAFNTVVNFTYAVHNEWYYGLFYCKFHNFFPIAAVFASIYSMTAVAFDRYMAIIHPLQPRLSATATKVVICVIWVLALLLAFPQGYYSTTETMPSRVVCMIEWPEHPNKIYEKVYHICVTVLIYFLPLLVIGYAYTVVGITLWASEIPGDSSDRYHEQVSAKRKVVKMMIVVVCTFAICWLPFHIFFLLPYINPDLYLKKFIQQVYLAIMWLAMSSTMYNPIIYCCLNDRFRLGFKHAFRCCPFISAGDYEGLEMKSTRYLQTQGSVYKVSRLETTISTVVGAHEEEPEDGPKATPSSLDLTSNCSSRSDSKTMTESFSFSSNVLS

As a reminder, the IC50 is the concentration that inhibits the measured activity by half. One may read the Ki as a measure of affinity in units of concentration, obtained from inhibition or displacement. On to `COc1cc(/C=C/C(=O)O)ccc1O` [FERULATE], for which the IC50 result (in test [1]; in test [2]; in test [3] (cho-k1); against Substance-P receptor; in test [4]) was “Not Active” in each case. Further, the inhibition constant Ki entry in test [1] and in test [2] was “Not Active” in each case.

For the compound `CC(C)(C#N)c1cc(Cn2cncn2)cc(C(C)(C)C#N)c1` [ANASTROZOLE], the IC50 result (in test [1]; in test [2]; in test [3] (cho-k1); against Substance-P receptor; in test [4]) was “Not Active” throughout. Besides, the Ki entry in test [1] and in test [2] was “Not Active” each time.

For the compound `COc1ccc(Cl)cc1C(=O)NCCc1ccc(S(=O)(=O)NC(=O)NC2CCCCC2)cc1` [GLYBURIDE], the IC50 result (in test [1]; in test [2]; in test [3] (cho-k1); on Substance-P receptor; in test [4]) was “Not Active” throughout. Further, the inhibition constant Ki result in test [1] and in test [2] was “Not Active” in each case.

Take `CC(C)NCC(O)COc1ccc(CC(N)=O)cc1` (stereo not drawn) [ATENOLOL]: the half-maximal inhibitory concentration (IC50) result (in test [1]; in test [2]; in test [3] (cho-k1); against Substance-P receptor; in test [4]) was “Not Active” each time. In addition, the inhibition constant (Ki) entry in test [1] and in test [2] was “Not Active” each time.

Turning to `O=C(O)COC(=O)Cc1ccccc1Nc1c(Cl)cccc1Cl` [ACECLOFENAC], the IC50 result in test [1] is “Not Active”; in test [2], “Not Active”; in test [3] (cho-k1), “Not Active”; at Substance-P receptor, “Not Active”; in test [4] (read-out: IC50) it was 1.29 µM. Further, the inhibitory constant (Ki) result in test [1] and in test [2] was “Not Active” throughout.

For `Cl.NC[C@H]1CC[C@H](C(=O)Oc2ccc(CCC(=O)O)cc2)CC1` [CETRAXATE HYDROCHLORIDE], the half-inhibitory concentration (IC50) entry (in test [1]; in test [2]; in test [3] (cho-k1); on Substance-P receptor; in test [4]) was “Not Active” throughout. In addition, the inhibitory constant (Ki) entry in test [1] and in test [2] was “Not Active” in each case.

For the compound `CC(=O)[C@]1(O)Cc2c(O)c3c(c(O)c2[C@@H](O[C@H]2C[C@H](N)[C@H](O)[C@H](C)O2)C1)C(=O)c1ccccc1C3=O` [IDARUBICIN], the IC50 result (in test [1]; in test [2]; in test [3] (cho-k1); against Substance-P receptor; in test [4]) was “Not Active” in each case. Further, the inhibitory constant (Ki) result in test [1] and in test [2] was “Not Active” each time.

As to `C[C@@H]1[C@H](O)[C@@H](C)/C=C/C=C/C=C/C=C/C=C/C=C/C=C/[C@H](O[C@@H]2O[C@H](C)[C@@H](O)[C@H](N)[C@@H]2O)C[C@@H]2O[C@](O)(C[C@@H](O)C[C@@H](O)[C@H](O)CC[C@@H](O)C[C@@H](O)CC(=O)O[C@H]1C)C[C@H](O)[C@H]2C(=O)O` [AMPHOTERICIN B], the half-maximal inhibitory concentration (IC50) entry (in test [1]; in test [2]; in test [3] (cho-k1); against Substance-P receptor; in test [4]) was “Not Active” each time. For the same compound, the Ki entry in test [1] and in test [2] was “Not Active” each time.

With `O=C(O)c1ccccc1` [BENZOIC ACID], the half-maximal inhibitory concentration (IC50) result (in test [1]; in test [2]; in test [3] (cho-k1); on Substance-P receptor; in test [4]) was “Not Active” in each case. The inhibition constant (Ki) entry in test [1] and in test [2] was “Not Active” each time.

Regarding `C[C@]12CC[C@@H](O)C[C@@H]1CC[C@@H]1[C@@H]2CC[C@]2(C)C(=O)CC[C@@H]12` [ANDROSTERONE], the IC50 entry (in test [1]; in test [2]; in test [3] (cho-k1); on Substance-P receptor; in test [4]) was “Not Active” throughout. Besides, the inhibition constant Ki entry in test [1] and in test [2] was “Not Active” in each case.

On to `NCC(CC(=O)O)c1ccc(Cl)cc1` (stereo not drawn) [BACLOFEN], for which the IC50 entry (in test [1]; in test [2]; in test [3] (cho-k1); against Substance-P receptor; in test [4]) was “Not Active” in each case. The inhibition constant Ki result in test [1] and in test [2] was “Not Active” in each case.

Regarding `O=C(O)CO` [GLYCOLIC ACID], the IC50 result (in test [1]; in test [2]; in test [3] (cho-k1); at Substance-P receptor; in test [4]) was “Not Active” each time. Moreover, the inhibition constant (Ki) entry in test [1] and in test [2] was “Not Active” throughout.

Turning to `COc1ccccc1OCCNCC(O)COc1cccc2[nH]c3ccccc3c12` (stereo not drawn) [CARVEDILOL], the half-maximal inhibitory concentration (IC50) in test [1] (read-out: IC50) was 0.389 µM; in test [2], “Not Active”; in test [3] (read-out: IC50), 0.115 µM; against Substance-P receptor it was “Not Active”; in test [4] it was “Not Active”. For the same compound, the inhibition constant Ki in test [1] (read-out: Ki) was 0.378 µM; in test [2], “Not Active”; in test [3] (read-out: Ki), 0.06 µM.

As to `O=C(NCCN1CCOCC1)c1ccc(Cl)cc1` [MOCLOBEMIDE], the IC50 result (in test [1]; in test [2]; in test [3] (cho-k1); against Substance-P receptor; in test [4]) was “Not Active” in each case. Also, the Ki entry in test [1] and in test [2] was “Not Active” throughout.

On to `C=CCO` [ALLYL ALCOHOL], for which the IC50 entry (in test [1]; in test [2]; in test [3] (cho-k1); against Substance-P receptor; in test [4]) was “Not Active” each time. Moreover, the Ki entry in test [1] and in test [2] was “Not Active” each time.

In the case of `CC(C)Cc1ccc([C@H](C)C(=O)O)cc1` [DEXIBUPROFEN], the IC50 entry (in test [1]; in test [2]; in test [3] (cho-k1); on Substance-P receptor; in test [4]) was “Not Active” in each case. In addition, the Ki entry in test [1] and in test [2] was “Not Active” each time.

As to `O=c1[nH]cnc2c1ncn2[C@H]1CC[C@@H](CO)O1` [DIDANOSINE], the IC50 result (in test [1]; in test [2]; in test [3] (cho-k1); on Substance-P receptor; in test [4]) was “Not Active” throughout. Further, the Ki entry in test [1] and in test [2] was “Not Active” throughout.

Turning to `CC1(COc2ccc(CC3SC(=O)NC3=O)cc2)CCCCC1` (stereo not drawn) [CIGLITAZONE], the half-inhibitory concentration (IC50) entry (in test [1]; in test [2]; in test [3] (cho-k1); on Substance-P receptor; in test [4]) was “Not Active” throughout. In addition, the Ki result in test [1] and in test [2] was “Not Active” throughout.

On to `CC(=O)Nc1ccc2c(c1)Cc1ccccc1-2` [2-ACETYLAMINOFLUORENE], for which the 50% inhibitory concentration (IC50) result was “Not Active” in test [1]; “Not Active” in test [2]; 2.14 µM in test [3] (read-out: IC50); “Not Active” at Substance-P receptor; “Not Active” in test [4]. The values for the Ki entry in test [1], in test [2] and in test [3] (read-out: Ki) were “Not Active”, “Not Active” and 1.12 µM, respectively.

Regarding `C[C@H](C(=O)O)c1ccc2oc(-c3ccc(F)cc3)nc2c1` [FLUNOXAPROFEN], the IC50 result (in test [1]; in test [2]; in test [3] (cho-k1); against Substance-P receptor; in test [4]) was “Not Active” each time. In addition, the inhibition constant (Ki) entry in test [1] and in test [2] was “Not Active” each time.

Regarding `CC(C)Cn1cnc2c(N)nc3ccccc3c21` [IMIQUIMOD], the IC50 entry (in test [1]; in test [2]; in test [3] (cho-k1); against Substance-P receptor; in test [4]) was “Not Active” each time. Also, the inhibitory constant (Ki) entry in test [1] and in test [2] was “Not Active” throughout.

Take `OC[C@H]1OC2C3[C@@H](CO)OC(O[C@H]4[C@H](O)[C@@H](O)[C@@H](O[C@H]5[C@H](O)[C@@H](O)[C@@H](O[C@H]6[C@H](O)[C@@H](O)[C@@H](O[C@H]7[C@H](O)[C@@H](O)[C@@H](O[C@H]8[C@H](O)[C@@H](O)[C@@H](O[C@H]9[C@H](O)[C@@H](O)C(OC1[C@H](O)[C@H]2O)O[C@@H]9CO)O[C@@H]8CO)O[C@@H]7CO)O[C@@H]6CO)O[C@@H]5CO)O[C@@H]4CO)[C@H](O)[C@H]3O`: the concentration for half-maximal inhibition (IC50) entry (in test [1]; in test [2]; in test [3] (cho-k1); at Substance-P receptor; in test [4]) was “Not Active” throughout. The inhibition constant (Ki) result in test [1] and in test [2] was “Not Active” throughout.

With `CCN1CCN(c2cc3c(cc2F)c(=O)c(C(=O)O)cn3C2CC2)CC1` [ENROFLOXACIN], the half-maximal inhibitory concentration (IC50) result (in test [1]; in test [2]; in test [3] (cho-k1); on Substance-P receptor; in test [4]) was “Not Active” throughout. Further, the Ki result in test [1] and in test [2] was “Not Active” each time.

In the case of POVIDONE, the IC50 result (in test [1]; in test [2]; in test [3] (cho-k1); on Substance-P receptor; in test [4]) was “Not Active” throughout. In addition, the Ki result (in test [1]; in test [2]; in test [3] (cho-k1); at Substance-P receptor; in test [4]) was “Not Active” in each case.
